ChEMBL document CHEMBL4831516, “Development of Membrane-Active Honokiol/Magnolol Amphiphiles as Potent Antibacterial Agents against Methicillin-Resistant Staphylococcus aureus (MRSA)” (J Med Chem, 2021)
Converted amounts (≈) assume the structure as drawn.

Assays:
Staphylococcus aureus [1] = test: Antibacterial activity against Staphylococcus aureus ATCC29213 assessed as inhibition of visible growth incubated for 16 to 18 hrs by CLSI method; type: functional; settings: time 16-18 hrs, read-out: MIC100
Enterococcus faecalis = test: Antibacterial activity against Enterococcus faecalis ATCC29212 assessed as inhibition of visible growth incubated for 16 to 18 hrs by CLSI method; type: functional; settings: time 16-18 hrs, read-out: MIC100
Bacillus subtilis = test: Antibacterial activity against Bacillus subtilis assessed as inhibition of visible growth incubated for 16 to 18 hrs by CLSI method; type: functional; settings: time 16-18 hrs, read-out: MIC100
Micrococcus luteus = test: Antibacterial activity against Micrococcus luteus assessed as inhibition of visible growth incubated for 16 to 18 hrs by CLSI method; type: functional; settings: time 16-18 hrs, read-out: MIC100
Escherichia coli = test: Antibacterial activity against Escherichia coli ATCC25922 assessed as inhibition of visible growth incubated for 16 to 18 hrs by CLSI method; type: functional; settings: time 16-18 hrs, read-out: MIC100
[2] = tested on: Stenotrophomonas maltophilia; test: Antibacterial activity against Stenotrophomonas maltophilia assessed as inhibition of visible growth incubated for 16 to 18 hrs by CLSI method; type: functional; settings: time 16-18 hrs, read-out: MIC100
Salmonella enterica [3] = test: Antibacterial activity against Salmonella enterica 349812 assessed as inhibition of visible growth incubated for 16 to 18 hrs by CLSI method; type: functional; settings: time 16-18 hrs, read-out: MIC100
Salmonella enterica [4] = test: Antibacterial activity against Salmonella enterica 8389 assessed as inhibition of visible growth incubated for 16 to 18 hrs by CLSI method; type: functional; settings: time 16-18 hrs, read-out: MIC100
[5] = Hemolytic activity in sheep RBC assessed as hemolysis incubated for 1 hr; type: ADME, cell-based, Ovis aries, Erythrocyte; settings: sheep red blood cells (erythrocytes)
[6] = Selectivity index, HC50 for hemolytic activity in sheep RBC to MIC for antibacterial activity against Staphylococcus aureus ATCC29213; type: toxicity; settings: sheep red blood cells (erythrocytes), read-out: Selectivity Index
Staphylococcus aureus [7] = test: Antibacterial activity against methicillin-resistant Staphylococcus aureus clinical isolate M-11 assessed as inhibition of visible growth incubated for 16 to 18 hrs by CLSI method; type: functional; settings: time 16-18 hrs, read-out: MIC100
Staphylococcus aureus [8] = test: Antibacterial activity against methicillin-resistant Staphylococcus aureus clinical isolate M-12 assessed as inhibition of visible growth incubated for 16 to 18 hrs by CLSI method; type: functional; settings: time 16-18 hrs, read-out: MIC100
Staphylococcus aureus [9] = test: Antibacterial activity against methicillin-resistant Staphylococcus aureus clinical isolate M-13 assessed as inhibition of visible growth incubated for 16 to 18 hrs by CLSI method; type: functional; settings: time 16-18 hrs, read-out: MIC100
Staphylococcus aureus [10] = test: Antibacterial activity against methicillin-resistant Staphylococcus aureus clinical isolate M-14 assessed as inhibition of visible growth incubated for 16 to 18 hrs by CLSI method; type: functional; settings: time 16-18 hrs, read-out: MIC100
Staphylococcus aureus [11] = test: Antibacterial activity against methicillin-resistant Staphylococcus aureus clinical isolate M-15 assessed as inhibition of visible growth incubated for 16 to 18 hrs by CLSI method; type: functional; settings: time 16-18 hrs, read-out: MIC100
Staphylococcus aureus [12] = test: Antibacterial activity against methicillin-resistant Staphylococcus aureus clinical isolate M-16 assessed as inhibition of visible growth incubated for 16 to 18 hrs by CLSI method; type: functional; settings: time 16-18 hrs, read-out: MIC100
Staphylococcus aureus [13] = test: Antibacterial activity against methicillin-resistant Staphylococcus aureus clinical isolate M-17 assessed as inhibition of visible growth incubated for 16 to 18 hrs by CLSI method; type: functional; settings: time 16-18 hrs, read-out: MIC100
Staphylococcus aureus [14] = test: Antibacterial activity against methicillin-resistant Staphylococcus aureus clinical isolate M-18 assessed as inhibition of visible growth incubated for 16 to 18 hrs by CLSI method; type: functional; settings: time 16-18 hrs, read-out: MIC100
Staphylococcus aureus [15] = test: Antibacterial activity against methicillin-resistant Staphylococcus aureus clinical isolate M-19 assessed as inhibition of visible growth incubated for 16 to 18 hrs by CLSI method; type: functional; settings: time 16-18 hrs, read-out: MIC100
Staphylococcus aureus [16] = test: Antibacterial activity against methicillin-resistant Staphylococcus aureus clinical isolate M-20 assessed as inhibition of visible growth incubated for 16 to 18 hrs by CLSI method; type: functional; settings: time 16-18 hrs, read-out: MIC100

Structure (SMILES)	MIC (Staphylococcus aureus [1]) [µg/mL]	MIC (Enterococcus faecalis) [µg/mL]	MIC (Bacillus subtilis) [µg/mL]	MIC (Micrococcus luteus) [µg/mL]	MIC (Escherichia coli) [µg/mL]	MIC [2] [µg/mL]	MIC (Salmonella enterica [3]) [µg/mL]	MIC (Salmonella enterica [4]) [µg/mL]	HC50 at 1 h [5] [µg/mL]	selectivity ratio [6]	MIC (Staphylococcus aureus [7]) [µg/mL]	MIC (Staphylococcus aureus [8]) [µg/mL]	MIC (Staphylococcus aureus [9]) [µg/mL]	MIC (Staphylococcus aureus [10]) [µg/mL]	MIC (Staphylococcus aureus [11]) [µg/mL]	MIC (Staphylococcus aureus [12]) [µg/mL]	MIC (Staphylococcus aureus [13]) [µg/mL]	MIC (Staphylococcus aureus [14]) [µg/mL]	MIC (Staphylococcus aureus [15]) [µg/mL]	MIC (Staphylococcus aureus [16]) [µg/mL]
C=CCc1ccc(OCCC[N+](C)(C)CC(=O)NCCC)c(-c2ccc(OCCC[N+](C)(C)CC(=O)NCCC)c(CC=C)c2)c1.[Br-].[Br-]	2	2	1	4	16	16	32	32	682	341	4	4	4	2	2	2	4	4	4	2
C=CCc1ccc(OCCCC[N+](C)(C)CC(=O)NCCC)c(-c2ccc(OCCCC[N+](C)(C)CC(=O)NCCC)c(CC=C)c2)c1.[Br-].[Br-]	2	2	2	2	8	8	8	8	644	322	4	4	4	4	4	4	8	8	8	8
C=CCc1ccc(O)c(-c2cc(CC=C)ccc2OCCCC[N+](C)(C)CC(=O)NCCCC)c1.[Br-]	2	2	0.5	0.5	8	8	16	16	555	277	4	2	2	2	1	1	2	1	1	1
C=CCc1ccc(O)c(-c2cc(CC=C)ccc2OCC[N+](C)(C)CC(=O)N(CCCC)CCCC)c1.[Br-]	2	4	1	2	8	16	16	16	786	393	4	4	4	4	4	2	2	2	2	2
C=CCc1ccc(OCCC[N+](C)(C)CC(=O)NCCCCCC)c(-c2ccc(OCCC[N+](C)(C)CC(=O)NCCCCCC)c(CC=C)c2)c1.[Br-].[Br-]	4	4	2	2	8	8	4	2	1080	269	4	4	4	4	4	4	4	4	4	4
CN[C@H](CC(C)C)C(=O)N[C@H]1C(=O)N[C@@H](CC(N)=O)C(=O)N[C@H]2C(=O)N[C@H]3C(=O)N[C@H](C(=O)N[C@H](C(=O)O)c4cc(O)cc(O)c4-c4cc3ccc4O)[C@H](O)c3ccc(c(Cl)c3)Oc3cc2cc(c3O[C@@H]2O[C@H](CO)[C@@H](O)[C@H](O)[C@H]2O[C@H]2C[C@](C)(N)[C@H](O)[C@H](C)O2)Oc2ccc(cc2Cl)[C@H]1O [VANCOMYCIN]	–	2 (≈ 1.38 µM)	0.25 (≈ 0.173 µM)	0.5 (≈ 0.345 µM)	–	–	–	–	–	–	–	–	–	–	–	–	–	–	–	–
CN(C)c1cc(NC(=O)CNC(C)(C)C)c(O)c2c1C[C@H]1C[C@H]3[C@H](N(C)C)C(O)=C(C(N)=O)C(=O)[C@@]3(O)C(O)=C1C2=O [TIGECYCLINE]	–	–	–	–	–	–	–	–	–	–	0.5 (≈ 0.854 µM)	1 (≈ 1.71 µM)	1 (≈ 1.71 µM)	1 (≈ 1.71 µM)	0.5 (≈ 0.854 µM)	0.25 (≈ 0.427 µM)	0.5 (≈ 0.854 µM)	0.25 (≈ 0.427 µM)	0.5 (≈ 0.854 µM)	0.5 (≈ 0.854 µM)
C[C@H]1COc2c(N3CCN(C)CC3)c(F)cc3c(=O)c(C(=O)O)cn1c23.C[C@H]1COc2c(N3CCN(C)CC3)c(F)cc3c(=O)c(C(=O)O)cn1c23.O [LEVOFLOXACIN]	0.5	0.25	0.5	0.25	–	0.5	0.25	0.25	–	–	1	1	5	1	1	1	5	0.5	1	1
C=CCc1ccc(O)c(-c2ccc(O)c(CC=C)c2)c1 [HONOKIOL]	64 (≈ 240 µM)	64 (≈ 240 µM)	32 (≈ 120 µM)	32 (≈ 120 µM)	> 128	> 128	> 128	> 128	534	–	–	–	–	–	–	–	–	–	–	–
C=CCc1ccc(O)c(-c2cc(CC=C)ccc2O)c1 [MAGNOLOL]	32 (≈ 120 µM)	64 (≈ 240 µM)	16 (≈ 60.1 µM)	16 (≈ 60.1 µM)	> 128	> 128	> 128	> 128	463	–	–	–	–	–	–	–	–	–	–	–
